This is an account of results in US12257245B2, “Methods and compositions for inhibition of EGF/EGFR pathway in combination with anaplastic lymphoma kinase inhibitors” (In3Bio Ltd., priority 2018, dated 2025).

A value given as a limit tells only on which side of the number the result lay.

The target in data set [1] is ALK (Homo sapiens, UniProt Q9UM73). The note with it: cited from earlier work.
Data set [2] relates to pEGFR (TYR 1068), pSTAT3 (TYR 705), pAKT (SER 473), pERK1/2 (THR 202/TYR 204) in DLD1 cells. Nature of the data set: Western blot of signaling in DLD1 cells. To be noted: 2 hour (BVN22E antibodies alone: 2 and 24 hour). It counts as cell-based. As for the experimental part:
The effects of BVN22E antibodies were investigated in DLD1 cells via Western Blots, see FIGS. 42 and 43.
The effect of Trametinib treatment in the DLD1 cell line was also assessed in a western blot assay and the results are presented in FIG. 45. […] Inhibition of pStat3 and pERK1/2 were observed, though only at concentrations beyond the physiological concentrations of Trametinib used in patients.
BVN22E antibodies alone inhibited phosphorylation of EGFR.

For data set [3] the following is noted: in vivo; cited from earlier work.

Chain of ALK (Q9UM73 19-1620): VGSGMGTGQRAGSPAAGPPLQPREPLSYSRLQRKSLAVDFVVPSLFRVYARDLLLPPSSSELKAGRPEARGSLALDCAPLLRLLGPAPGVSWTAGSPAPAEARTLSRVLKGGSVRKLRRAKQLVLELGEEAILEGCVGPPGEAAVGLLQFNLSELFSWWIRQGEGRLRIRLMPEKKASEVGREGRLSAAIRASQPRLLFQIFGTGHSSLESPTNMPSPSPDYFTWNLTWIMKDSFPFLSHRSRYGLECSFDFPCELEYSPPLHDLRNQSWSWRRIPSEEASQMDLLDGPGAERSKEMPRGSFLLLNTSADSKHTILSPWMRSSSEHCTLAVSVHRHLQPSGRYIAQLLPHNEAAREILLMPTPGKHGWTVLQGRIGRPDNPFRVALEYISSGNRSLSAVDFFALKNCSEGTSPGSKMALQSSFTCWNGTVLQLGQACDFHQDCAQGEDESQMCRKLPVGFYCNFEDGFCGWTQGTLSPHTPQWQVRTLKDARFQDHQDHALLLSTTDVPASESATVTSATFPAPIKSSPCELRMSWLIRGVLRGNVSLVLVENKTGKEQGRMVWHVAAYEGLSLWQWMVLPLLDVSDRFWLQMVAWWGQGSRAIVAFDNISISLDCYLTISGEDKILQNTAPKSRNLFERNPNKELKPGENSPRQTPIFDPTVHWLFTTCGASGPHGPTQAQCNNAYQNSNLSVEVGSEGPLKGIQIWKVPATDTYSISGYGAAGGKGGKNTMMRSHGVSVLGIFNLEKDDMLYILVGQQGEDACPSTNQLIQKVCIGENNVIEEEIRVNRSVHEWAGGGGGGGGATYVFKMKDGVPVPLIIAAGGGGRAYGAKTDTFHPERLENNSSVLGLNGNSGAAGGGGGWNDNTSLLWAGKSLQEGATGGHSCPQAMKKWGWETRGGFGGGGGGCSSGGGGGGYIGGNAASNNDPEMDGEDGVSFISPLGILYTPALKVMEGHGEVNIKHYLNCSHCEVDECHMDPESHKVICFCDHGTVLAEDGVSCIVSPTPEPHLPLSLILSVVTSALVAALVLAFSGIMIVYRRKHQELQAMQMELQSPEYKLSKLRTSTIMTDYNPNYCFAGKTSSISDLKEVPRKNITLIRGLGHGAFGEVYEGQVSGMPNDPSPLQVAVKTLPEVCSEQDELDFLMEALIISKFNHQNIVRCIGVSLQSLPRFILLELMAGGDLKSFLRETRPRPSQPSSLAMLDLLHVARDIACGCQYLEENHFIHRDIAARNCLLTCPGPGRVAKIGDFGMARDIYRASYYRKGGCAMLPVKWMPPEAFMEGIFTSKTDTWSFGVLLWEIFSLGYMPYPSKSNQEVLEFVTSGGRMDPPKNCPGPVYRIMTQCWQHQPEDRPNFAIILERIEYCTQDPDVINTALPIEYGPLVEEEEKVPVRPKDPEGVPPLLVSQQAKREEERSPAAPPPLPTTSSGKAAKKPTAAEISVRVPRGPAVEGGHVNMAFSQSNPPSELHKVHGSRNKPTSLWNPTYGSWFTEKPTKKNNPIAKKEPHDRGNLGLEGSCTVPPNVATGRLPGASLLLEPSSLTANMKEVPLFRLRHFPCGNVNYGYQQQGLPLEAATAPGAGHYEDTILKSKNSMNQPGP

As to `Cc1cc(Nc2ncc(Cl)c(Nc3ccccc3S(=O)(=O)C(C)C)n2)c(OC(C)C)cc1C1CCNCC1` [Ceritinib], the “potency for inhibiting alk compared with crizotinib” value in data set [1] (relative to crizotinib) was 20 times.

Take `C[C@@H]1CN(C(=O)c2ccc(NC(=O)c3cc(O[C@H](C)c4c(Cl)ccc(F)c4Cl)c(N)nn3)cc2)C[C@H](C)N1` [Ensartinib]: the 50% inhibitory concentration (IC50) in data set [1] is less than 0.4 nM.

Consider `CC(=O)Nc1cccc(-n2c(=O)n(C3CC3)c(=O)c3c(Nc4ccc(I)cc4F)n(C)c(=O)c(C)c32)c1` [Trametinib], for which the pEGFR entry in data set [2] is listed as “no effect”. Turning to `C[C@H]1Oc2cc(cnc2N)-c2c(nn(C)c2C#N)CN(C)C(=O)c2ccc(F)cc21` [Lorlatinib], the CNS penetration entry in data set [3] was “highly CNS-penetrant”.
